# Experimental data from patent publication US5814600A, “Method and composition for treatment of insulin requiring mammals” (Amylin Pharmaceuticals Inc., priority 1994, dated 1998).
# Like-named read-outs stand apart in the source and are kept apart here.
# Tests used:
# rat soleus muscle = type: cell-based
# Protocol: Male Harlan Sprague Dawley rats of approximately 200 g mass were used in order to maintain soleus muscle mass less than 40 mg. The animals were fasted for 4 hours prior to sacrifice by decapitation. The skin was stripped from the lower limb which was then pinned out on cork board. The tendo achilles was cut just above os […]. gastrocnemius reflected out from the posterior aspect of the tibia. M. soleus, a small […], 0.55 mm thick flat muscle on the bone surface of m. gastrocnemius was then stripped clear and the perimysium cleaned off using fine scissors and forceps. M. soleus was then split into equal parts using a blade passed antero-posteriorly through the belly of the muscle to obtain a total of 4 muscle strips from each animal. After dissecting the muscle from the animal, it was kept for a short period in physiological saline. The muscle was not held under tension, as reported in other methodologies since in our hands this had no demonstrable effect on the insulin-sensitivity of radioglucose incorporation into glycogen. Muscles were added to 50 mL Erlenmeyer flasks containing 10 mL of a pregassed Krebs-Ringer bicarbonate buffer containing (mM) NaCl 118.5; KCl 5.94; CaCl2 2.54; MgSO4 1.19; KH2 PO4 1.19; NaHCO3 25; glucose 5.5; and recombinant human insulin (Humulin-R, Eli Lilly, Ind.) and either synthetic rat (Bachem, Torrance, Calif. Lot# ZG485) or synthetic human amylin (Bachem, Torrance, Calif. Lot# ZH144) as detailed below. Methods used to determine the nature and purity of rat and human amylin included quantitative amino acid analysis, gas phase amino acid sequencing, reverse phase HPLC and fast-atom-bombardment mass spectrometry. […] Incorporation of mercury into rat amylin may be a feature of many commercially available batches that have already been used in published studies. Since the peptide was bioactive, its action in muscle was expected to at least qualitatively mimic that of true rat amylin. The mercuric method of cyclization was not used in the synthesis of human amylin, which is found by electrospray ionization mass spectrometry and atomic absorption spectroscopy to be mercury-free. Muscles were assigned to different flasks so that the four muscle pieces from each animal were evenly distributed among the different assay conditions. The incubation media were gassed by gently blowing carbogen (95% O2, 5% CO2) over the surface while it was continuously agitated at 37° C. in an oscillating water bath. pH of gassed media at 37° C. was verified as being between 7.1 and 7.4. After a half-hour preincubation, 0.5 μCi of [U-^14 C]-glucose was added to each flask for a further 60 minutes. Each muscle piece was then rapidly removed, trimmed of tendons, blotted, frozen in liquid N2, weighed and then stored at […] for subsequent determination of ^14 C-glycogen. The incubation medium was also frozen for subsequent analysis. The concentration of human amylin present in the medium at the end of the incubation was determined by radioimmunoassay in surfactant-containing buffer. For both human and rat amylin, the actual mass added to the incubation medium was determined by quantitative amino-acid analysis. Each frozen muscle specimen was placed in a vial with 1 mL 60% potassium hydroxide (wt/vol) and digested at 70° C. for 45 minutes under intermittent vigorous agitation. Dissolved glycogen was precipitated onto the walls of the vial by addition of 3 mL absolute ethanol and overnight cooling at -20° C. After centrifugation for 30 minutes at 2000 x-- g, the supernatant was gently aspirated, the glycogen was again washed with ethanol and centrifuged, the ethanol aspirated and the precipitate dried under vacuum. It was important to evaporate all ethanol to avoid quenching during scintillation counting. The remaining glycogen was redissolved in 1 mL water and 4 mL scintillation fluid and counted for ^14 C. […]
# [1] = tested on: patients with juvenile-onset diabetes; assay: 14-day clinical study: adverse events; type: in vivo, human
# Text: In a 14-day double-blind, placebo controlled clinical study, for example, patients with juvenile-onset diabetes who continued their usual insulin therapy and self-injected tripro-amylin three times daily had lower average blood glucose levels after a test meal than did patients who received insulin and placebo. […] See also Table 2 below. […] These thrice-daily doses of tripro-amylin reflect per day dosages of, respectively, 90, 300, and 900 micrograms per patient. For a patient of average weight, about 70 kg, these reflect doses of 1.3 μg/kg/day, 4.3 μg/kg/day, and 12.9 μg/kg/day. An average per day insulin dose is about 50 units, or 2000 micrograms.
# The only adverse events which led a limited number of patients to discontinue the study were gastrointestinal side effects, mainly nausea, which were more frequent only in those patients receiving higher doses of drug. About 20% of patients in the mid- and high-dose groups who reported nausea also experienced vomiting on one or more occasions.
# [2] = tested on: patients with juvenile-onset diabetes; assay: 14-day clinical study: insulin challenge to induce hypoglycemia; type: in vivo, human; settings: after overnight fast, after 14 days of therapy
# Text: Following an overnight fast, patients in the 14-day study were challenged with insulin twice: prior to the start of dosing, and after 14 days of placebo or tripro-amylin therapy. The insulin challenge was designed to pharmacologically induce hypoglycemia in a controlled and reproducible manner.
# [3] = tested on: streptozotocin-diabetic rats; assay: Liver glycogen in insulin-treated streptozotocin diabetic rats, daily s.c. amylin replacement; type: in vivo, rat; settings: STZ diabetic rats, insulin replacement only
# Protocol: There were 68 male Harlan Sprague Dawley rats (mass 301±3 g) in 8 treatment groups. Animals were housed at 22.7±0.8° C. in a 12:12 hour light:dark cycle (experiments being performed during the light cycle) and fed and watered ad libitum (Diet LM-485, Teklad, Madison, Wis.). The rats were sacrificed for harvesting of livers 4 to 5 hours into the light cycle.
# Animals were injected with streptozotocin (Sigma Chemical Company, St Louis, Mo.: Sigma 50130) dissolved in water in a dose of 65 mg/kg into the lateral tail vein. […] Maintaining diabetic rats in this metabolic state optimizes survival. Following one week of established diabetes, animals received once daily s.c. injections of amylin vehicle (water for injection) for 5 days given at the time of the insulin injection.
# These animals were treated identically to those in group 1 except that the daily subcutaneous injection contained 3 μg (n=5); 10 μg (n=12); 30 μg (n=5); 100 μg (n=5) or 300 μg (n=5) of rat amylin (Bachem lot# WG485^2/). The bioactivity of the peptide used in these experiments was first verified by bioassay, using inhibition of insulin-stimulated radioglucose incorporation into glycogen in the isolated stripped rat soleus muscle. […] The insulin dose in each of the groups of diabetic animals averaged 1.67 U/animal/day. There were no other observable differences in the required management of the different groups.
# These animals were derived from the same stock and housed under the same conditions for the same time as those in groups 1-6, but were given no injections. 24 hours after the fifth daily injection of amylin or water (or an equivalent time after admission to the vivarium in the case of group 7 rats), the non-fasted rats were killed by decapitation and the livers immediately removed and frozen in liquid N2, weighed and stored for subsequent determination of glycogen concentration.
# Whole livers were powdered while frozen. Approximately 200 mg of powder was further homogenized in 1.0 mL of 0.6M perchloric acid to denature enzymes. 200 μL of the homogenate was neutralized with 0.5 volumes of 1.0M KHCO3 in either of two acetate buffer solutions, one containing 2.0 mL of 200 mM acetate (pH4.8), the other containing the same but with 18.5 U/mL of amyloglucosidase (EC5 3.2.1.3, from Aspergillus nicer, Sigma A3423, Sigma Chemical Company, St Louis, Mo.) added. Following at least 20 minutes incubation at 23° C., the supernatants were assayed for glucose in an analyzer using D-glucose oxidase immobilized enzyme chemistry (Analyzer model 2300-STAT, YSI, Yellow Springs, Ohio). Purified rabbit liver glycogen (Sigma G8876) used as a standard indicated 98±4% recovery of dissolved glycogen and linearity within the range of observed liver glycogen concentrations (r=0.9994). All reagents were of analytical grade or better.
# Statistical comparisons were by Student's t-test routines contained in the SYSTAT system (Systat, Evanston, Ill.). All results are reported as means ± standard error of the mean.
# [4] = 30 micrograms 3 times daily, 18 patients starting study
# [5] = 100 micrograms 3 times daily, 23 patients starting study
# [6] = 300 micrograms 3 times daily, 21 patients starting study
compound,measurement,setting,value
CC[C@H](C)[C@H](NC(=O)[C@H](C)NC(=O)CNC(=O)[C@H](Cc1ccccc1)NC(=O)[C@H](CC(N)=O)NC(=O)[C@H](CC(N)=O)NC(=O)[C@H](CO)NC(=O)[C@H](CO)NC(=O)[C@H](Cc1c[nH]cn1)NC(=O)[C@@H](NC(=O)[C@H](CC(C)C)NC(=O)[C@H](Cc1ccccc1)NC(=O)[C@H](CC(N)=O)NC(=O)[C@H](C)NC(=O)[C@H](CC(C)C)NC(=O)[C@H](CCCNC(=N)N)NC(=O)[C@H](CCC(N)=O)NC(=O)[C@@H](NC(=O)[C@H](C)NC(=O)[C@@H]1CSSC[C@H](NC(=O)[C@@H](N)CCCCN)C(=O)N[C@@H](CC(N)=O)C(=O)N[C@@H]([C@@H](C)O)C(=O)N[C@@H](C)C(=O)N[C@@H]([C@@H](C)O)C(=O)N1)[C@@H](C)O)C(C)C)C(=O)N[C@@H](CC(C)C)C(=O)N[C@@H](CO)C(=O)N[C@@H](CO)C(=O)N[C@H](C(=O)N[C@@H](CC(N)=O)C(=O)N[C@H](C(=O)NCC(=O)N[C@@H](CO)C(=O)N[C@@H](CC(N)=O)C(=O)N[C@H](C(=O)N[C@@H](Cc1ccc(O)cc1)C(N)=O)[C@@H](C)O)C(C)C)[C@@H](C)O [human amylin],EC50,rat soleus muscle; 4 h,0.438 nM
"CC[C@H](C)[C@H](NC(=O)[C@@H]1CCCN1C(=O)CNC(=O)[C@H](Cc1ccccc1)NC(=O)[C@H](CC(N)=O)NC(=O)[C@H](CC(N)=O)NC(=O)[C@H](CO)NC(=O)[C@H](CO)NC(=O)[C@H](Cc1c[nH]cn1)NC(=O)[C@@H](NC(=O)[C@H](CC(C)C)NC(=O)[C@H](Cc1ccccc1)NC(=O)[C@H](CC(N)=O)NC(=O)[C@H](C)NC(=O)[C@H](CC(C)C)NC(=O)[C@H](CCCNC(=N)N)NC(=O)[C@H](CCC(N)=O)NC(=O)[C@@H](NC(=O)[C@H](C)NC(=O)[C@@H]1CSSC[C@H](NC(=O)[C@@H](N)CCCCN)C(=O)N[C@@H](CC(N)=O)C(=O)N[C@@H]([C@@H](C)O)C(=O)N[C@@H](C)C(=O)N[C@@H]([C@@H](C)O)C(=O)N1)[C@@H](C)O)C(C)C)C(=O)N[C@@H](CC(C)C)C(=O)N1CCC[C@H]1C(=O)N1CCC[C@H]1C(=O)N[C@H](C(=O)N[C@@H](CC(N)=O)C(=O)N[C@H](C(=O)NCC(=O)N[C@@H](CO)C(=O)N[C@@H](CC(N)=O)C(=O)N[C@H](C(=O)N[C@@H](Cc1ccc(O)cc1)C(N)=O)[C@@H](C)O)C(C)C)[C@@H](C)O [tripro-amylin, ^25,28,29 Pro-human-amylin]","side effect profile, measures of safety",[1]; 14-day tests,all measures of safety were satisfactory
same,Patients reporting any gastrointestinal symptoms,[1]; [4],5
same,Patients reporting nausea for more than 7 days,[1]; [4],1
same,Patients reporting other events resulting in early discontinuation,[1]; [4],0
same,Patients who withdrew from the study with nausea,[1]; [4],1
same,Patients reporting any gastrointestinal symptoms,[1]; [5],13
same,Patients reporting nausea for more than 7 days,[1]; [5],8
same,Patients reporting other events resulting in early discontinuation,[1]; [5],0
same,Patients who withdrew from the study with nausea,[1]; [5],1
same,Patients reporting any gastrointestinal symptoms,[1]; [6],20
same,Patients reporting nausea for more than 7 days,[1]; [6],11
same,Patients reporting other events resulting in early discontinuation,[1]; [6],0
same,Patients who withdrew from the study with nausea,[1]; [6],8
same,patients who reported nausea and also experienced vomiting on one or more occasions,[1]; mid- and high-dose groups,About 20%
same,glucose response to insulin challenge compared to placebo group,[2],did not measurably alter the glucose reponse
"insulin: recombinant human insulin (Humulin-R, Eli Lilly) in soleus assay; Humulin-Ultralente for daily treatment of diabetic rats","Insulin dose response: Maximal response, Mean",rat soleus muscle; [amylin] 0 nM (nominal),4.09 μmol/g wet tissue/hr
same,EC50,"rat soleus muscle; [amylin] 0 nM (nominal), read-out: Insulin dose response: EC50, Mean ± log SE (converted)",1.16 ± 0.1 nM
same,"Insulin dose response: Maximal response, Mean",rat soleus muscle; [amylin] 3 nM (nominal),3.45 μmol/g wet tissue/hr
same,EC50,"rat soleus muscle; [amylin] 3 nM (nominal), read-out: Insulin dose response: EC50, Mean ± log SE (converted)",0.78 ± 0.12 nM
same,"Insulin dose response: Maximal response, Mean",rat soleus muscle; [amylin] 10 nM (nominal),3.12 μmol/g wet tissue/hr
same,EC50,"rat soleus muscle; [amylin] 10 nM (nominal), read-out: Insulin dose response: EC50, Mean ± log SE (converted)",1.52 ± 0.15 nM
same,"Insulin dose response: Maximal response, Mean",rat soleus muscle; [amylin] 30 nM (nominal),2.13 μmol/g wet tissue/hr
same,EC50,"rat soleus muscle; [amylin] 30 nM (nominal), read-out: Insulin dose response: EC50, Mean ± log SE (converted)",1.33 ± 0.2 nM
same,"Insulin dose response: Maximal response, Mean",rat soleus muscle; [amylin] 100 nM (nominal),1.15 μmol/g wet tissue/hr
same,"Insulin dose response: Maximal response, Mean",rat soleus muscle; [amylin] 300 nM (nominal),0.93 μmol/g wet tissue/hr
same,EC50,"rat soleus muscle; absence of amylin, pooled from 7 assays, ±0.07 log units, read-out: EC50 of the insulin response",1.05 nM
same,increment in rate of glycogen labelling,"rat soleus muscle; insulin dose response in absence of amylin, pooled from 7 assays",3.7 fold
same,decrease in liver glycogen compared to normal rats,[3]; fed state,~35%
same,liver glycogen concentration,[3]; normal rats 8.6 mg/g,5.6 mg/g
